Test results: US6525001B1, “Substituted pyrimidine and pyridine herbicides” (Mid-American Commercialization Corporation, priority 1997, dated 2003)

Assays:
Assay type in all cases: in vivo
Set-up in all cases: key: 0 is no effect; 10 is complete control
corn (Zea mays) = assay: Test B pre-/postemergence
Text: (§1) Seeds of bedstraw (Galium aparine), blackgrass (Alopecurus myosuroides), broadleaf signalgrass (Brachiaria decumbens), cocklebur (Xanthium strumarium), corn (Zea mays), crabgrass (Digitaria sanguinalis), giant foxtail (Setaria faberii), lambsquarters (Chenopodium album), momingglory (Ipomoea hederacea), pigweed (Amaranthus retroflexus), rape (Brassica napus), soybean (Glycine max), sugar beet (Beta vulgaris), velvetleaf (Abutilon theophrasti), wheat (Triticum aestivum), wild oat (Avena fatua) and purple nutsedge (Cyperus rotundus) tubers were planted and treated preemergence with test chemicals formulated in a non-phytotoxic solvent mixture which included a surfactant.
(§2) At the same time, these crop and weed species were also treated with postemergence applications of test chemicals formulated in the same manner. Plants ranged in height from 2 to 18 cm (1- to 4-leaf stage) for postemergence treatments. Plant species in the flood test consisted of rice (Oryza sativa), smallflower flatsedge (Cyperus difformis), duck salad (Heteranthera limosa) and bamyardgrass (Echinochloa crus-galli) grown to the 2-leaf stage for testing. Treated plants and controls were maintained in a greenhouse for twelve to sixteen days, after which all species were compared to controls and visually evaluated. Plant response ratings, summarized in Table B, are based on a scale of 0 to 10 where 0 is no effect and 10 is complete control. A dash (−) response means no test result.

soybean (Glycine max) = assay: Test B pre-/postemergence
Text: as §1, §2

wild oat (Avena fatua) = assay: Test B pre-/postemergence
Text: as §1, §2

[1] = test system: pigweed (Amaranthus retroflexus); assay: Test B pre-/postemergence
Text: as §1, §2

[2] = test system: cocklebur (Xanthium strumarium); assay: Test B pre-/postemergence; conditions: for Plant response rating, Cocklebur: Postemergence; for Cocklebur plant response rating: Preemergence
Text: as §1, §2

[3] = test system: purple nutsedge (Cyperus rotundus); assay: Test B pre-/postemergence
Text: as §1, §2

[4] = test system: bedstraw (Galium aparine); assay: Test B pre-/postemergence
Text: as §1, §2

[5] = test system: broadleaf signalgrass (Brachiaria decumbens); assay: Test B pre-/postemergence
Text: as §1, §2

[6] = test system: sugar beet (Beta vulgaris); assay: Test B pre-/postemergence
Text: as §1, §2

[7] = test system: momingglory (Ipomoea hederacea); assay: Test B pre-/postemergence
Text: as §1, §2

rape (Brassica napus) = assay: Test B pre-/postemergence
Text: as §1, §2

[8] = test system: blackgrass (Alopecurus myosuroides); assay: Test B pre-/postemergence
Text: as §1, §2

[9] = test system: crabgrass (Digitaria sanguinalis); assay: Test B pre-/postemergence
Text: as §1, §2

[10] = test system: wheat (Triticum aestivum); assay: Test B pre-/postemergence
Text: as §1, §2

[11] = test system: giant foxtail (Setaria faberii); assay: Test B pre-/postemergence
Text: as §1, §2

[12] = test system: velvetleaf (Abutilon theophrasti); assay: Test B pre-/postemergence
Text: as §1, §2

[13] = test system: duck salad (Heteranthera limosa); assay: Test B flood test
Method in brief: (§3)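 Plants were grown to the 2-leaf stage before treatment with test chemical, then held in a greenhouse for twelve to sixteen days. Injury was visually rated against untreated controls on a 0–10 scale, where 0 is no effect and 10 is complete control.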

rice (Oryza sativa) = assay: Test B flood test
Method in brief: as §3

[14] = test system: bamyardgrass (Echinochloa crus-galli); assay: Test B flood test
Method in brief: as §3

[15] = test system: smallflower flatsedge (Cyperus difformis); assay: Test B flood test
Method in brief: as §3

[16] = Rate 62 g/ha, Postemergence (flood test)
[17] = Rate 125 g/ha, Postemergence, flood test
[18] = Rate 250 g/ha, Postemergence (flood test species)

COC(c1cccc(C(F)(F)F)c1)c1nc(-c2ccc(C(F)(F)F)cc2)ncc1C (racemic) [Compound 20]
6: Plant response rating, Soybean (soybean (Glycine max); Rate 250 g/ha, Postemergence) | Plant response rating, Velvetleaf ([12]; Rate 125 g/ha, Postemergence)
5: Plant response rating, Soybean (soybean (Glycine max); Rate 125 g/ha, Postemergence) | Plant response rating, Redroot pigweed ([1]; Rate 62 g/ha, Postemergence) | Plant response rating, Cocklebur ([2]; Rate 125 g/ha) | Plant response rating, Sugarbeets ([6]; Rate 125 g/ha, Postemergence) | Plant response rating, Rape (rape (Brassica napus); Rate 250 g/ha, Postemergence)
3: Plant response rating, Corn (corn (Zea mays); Rate 62 g/ha, Postemergence) | Plant response rating, Corn (corn (Zea mays); Rate 125 g/ha, Postemergence) | Plant response rating, Corn (corn (Zea mays); Rate 250 g/ha, Postemergence) | Plant response rating, Wild oats (wild oat (Avena fatua); Rate 125 g/ha, Postemergence) | Plant response rating, Wild oats (wild oat (Avena fatua); Rate 250 g/ha, Postemergence) | Plant response rating, Wild oats (wild oat (Avena fatua); Rate 250 g/ha, Preemergence) | Plant response rating, B. signalgrass ([5]; Rate 250 g/ha, Postemergence) | Plant response rating, Sugarbeets ([6]; Rate 62 g/ha, Postemergence) | Plant response rating, Morningglory ([7]; Rate 62 g/ha, Postemergence) | Plant response rating, Rape (rape (Brassica napus); Rate 62 g/ha, Postemergence) | Plant response rating, Blackgrass ([8]; Rate 250 g/ha, Postemergence) | Plant response rating, Crabgrass ([9]; Rate 125 g/ha, Postemergence) | Plant response rating, Crabgrass ([9]; Rate 250 g/ha, Postemergence) | Plant response rating, Wheat ([10]; Rate 125 g/ha, Postemergence) | Plant response rating, Wheat ([10]; Rate 250 g/ha, Postemergence) | Plant response rating, Giant foxtail ([11]; Rate 250 g/ha, Postemergence)
8: Plant response rating, Redroot pigweed ([1]; Rate 250 g/ha, Postemergence)
4: Plant response rating, Soybean (soybean (Glycine max); Rate 62 g/ha, Postemergence) | Plant response rating, Cocklebur ([2]; Rate 62 g/ha) | Plant response rating, Bedstraw ([4]; Rate 62 g/ha, Postemergence) | Plant response rating, Bedstraw ([4]; Rate 125 g/ha, Postemergence) | Plant response rating, Bedstraw ([4]; Rate 250 g/ha, Postemergence) | Plant response rating, B. signalgrass ([5]; Rate 250 g/ha, Preemergence) | Plant response rating, Morningglory ([7]; Rate 125 g/ha, Postemergence) | Plant response rating, Morningglory ([7]; Rate 250 g/ha, Postemergence) | Plant response rating, Rape (rape (Brassica napus); Rate 125 g/ha, Postemergence) | Plant response rating, Blackgrass ([8]; Rate 250 g/ha, Preemergence) | Plant response rating, Velvetleaf ([12]; Rate 62 g/ha, Postemergence)
7: Plant response rating, Redroot pigweed ([1]; Rate 125 g/ha, Postemergence) | Plant response rating, Cocklebur ([2]; Rate 250 g/ha) | Plant response rating, Sugarbeets ([6]; Rate 250 g/ha, Postemergence) | Plant response rating, Velvetleaf ([12]; Rate 250 g/ha, Postemergence)
2: Plant response rating, Wild oats (wild oat (Avena fatua); Rate 62 g/ha, Postemergence) | Wild oats plant response rating (wild oat (Avena fatua); Rate 125 g/ha, Preemergence) | Plant response rating, B. signalgrass ([5]; Rate 62 g/ha, Postemergence) | Plant response rating, B. signalgrass ([5]; Rate 125 g/ha, Postemergence) | Plant response rating, Sugarbeets ([6]; Rate 250 g/ha, Preemergence) | Plant response rating, Blackgrass ([8]; Rate 62 g/ha, Postemergence) | Plant response rating, Blackgrass ([8]; Rate 125 g/ha, Postemergence) | Blackgrass plant response rating ([8]; Rate 125 g/ha, Preemergence) | Plant response rating, Crabgrass ([9]; Rate 62 g/ha, Postemergence) | Plant response rating, Crabgrass ([9]; Rate 250 g/ha, Preemergence) | Plant response rating, Wheat ([10]; Rate 62 g/ha, Postemergence) | Plant response rating, Giant foxtail ([11]; Rate 62 g/ha, Postemergence) | Plant response rating, Giant foxtail ([11]; Rate 125 g/ha, Postemergence)
0: Corn plant response rating (corn (Zea mays); Rate 62 g/ha, Preemergence) | Corn plant response rating (corn (Zea mays); Rate 125 g/ha, Preemergence) | Plant response rating, Corn (corn (Zea mays); Rate 250 g/ha, Preemergence) | Soybean plant response rating (soybean (Glycine max); Rate 62 g/ha, Preemergence) | Soybean plant response rating (soybean (Glycine max); Rate 125 g/ha, Preemergence) | Plant response rating, Soybean (soybean (Glycine max); Rate 250 g/ha, Preemergence) | Redroot pigweed plant response rating ([1]; Rate 62 g/ha, Preemergence) | Redroot pigweed plant response rating ([1]; Rate 125 g/ha, Preemergence) | Cocklebur plant response rating ([2]; Rate 62 g/ha) | Cocklebur plant response rating ([2]; Rate 125 g/ha) | Plant response rating, Nutsedge ([3]; Rate 62 g/ha, Postemergence) | Nutsedge plant response rating ([3]; Rate 62 g/ha, Preemergence) | Plant response rating, Nutsedge ([3]; Rate 125 g/ha, Postemergence) | Plant response rating, Nutsedge ([3]; Rate 250 g/ha, Postemergence) | Plant response rating, Nutsedge ([3]; Rate 250 g/ha, Preemergence) | Bedstraw plant response rating ([4]; Rate 62 g/ha, Preemergence) | Bedstraw plant response rating ([4]; Rate 125 g/ha, Preemergence) | B. signalgrass plant response rating ([5]; Rate 62 g/ha, Preemergence) | Sugarbeets plant response rating ([6]; Rate 62 g/ha, Preemergence) | Sugarbeets plant response rating ([6]; Rate 125 g/ha, Preemergence) | Morningglory plant response rating ([7]; Rate 62 g/ha, Preemergence) | Morningglory plant response rating ([7]; Rate 125 g/ha, Preemergence) | Plant response rating, Morningglory ([7]; Rate 250 g/ha, Preemergence) | Rape plant response rating (rape (Brassica napus); Rate 62 g/ha, Preemergence) | Rape plant response rating (rape (Brassica napus); Rate 125 g/ha, Preemergence) | Plant response rating, Rape (rape (Brassica napus); Rate 250 g/ha, Preemergence) | Crabgrass plant response rating ([9]; Rate 62 g/ha, Preemergence) | Wheat plant response rating ([10]; Rate 62 g/ha, Preemergence) | Wheat plant response rating ([10]; Rate 125 g/ha, Preemergence) | Plant response rating, Wheat ([10]; Rate 250 g/ha, Preemergence) | Giant foxtail plant response rating ([11]; Rate 62 g/ha, Preemergence) | Giant foxtail plant response rating ([11]; Rate 125 g/ha, Preemergence) | Velvetleaf plant response rating ([12]; Rate 62 g/ha, Preemergence) | Velvetleaf plant response rating ([12]; Rate 125 g/ha, Preemergence) | Plant response rating, Velvetleaf ([12]; Rate 250 g/ha, Preemergence) | Plant response rating, Ducksalad [13, 16] | Plant response rating, Ducksalad [13, 17] | Plant response rating, Ducksalad [13, 18] | Plant response rating, Rice (rice (Oryza sativa); [16]) | Plant response rating, Rice (rice (Oryza sativa); [17]) | Plant response rating, Rice (rice (Oryza sativa); [18]) | Plant response rating, Barnyardgrass [14, 16] | Plant response rating, Barnyardgrass [14, 17] | Plant response rating, Barnyardgrass [14, 18] | Plant response rating, S. Flatsedge [15, 16] | Plant response rating, S. Flatsedge [15, 17] | Plant response rating, S. Flatsedge [15, 18]
1: Wild oats plant response rating (wild oat (Avena fatua); Rate 62 g/ha, Preemergence) | Plant response rating, Redroot pigweed ([1]; Rate 250 g/ha, Preemergence) | Plant response rating, Bedstraw ([4]; Rate 250 g/ha, Preemergence) | B. signalgrass plant response rating ([5]; Rate 125 g/ha, Preemergence) | Blackgrass plant response rating ([8]; Rate 62 g/ha, Preemergence) | Crabgrass plant response rating ([9]; Rate 125 g/ha, Preemergence) | Plant response rating, Giant foxtail ([11]; Rate 250 g/ha, Preemergence)
